Laboratory results from PubChem BioAssay (NCI).
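Values below derive from 48-hour exposures of cells grown in 96-well plates, with endpoints linearly interpolated between the two concentrations bracketing the appropriate inhibition level. GI50 is the concentration that inhibits growth by half. TGI marks complete inhibition of growth.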

Assays:
Experiment in all cases: growth of human tumour cells (NCI), 48 h
786-0 renal = test system: 786-0 renal
A498 renal = test system: A498 renal
A549 NSCLC = test system: A549 NSCLC
ACHN renal = test system: ACHN renal
BT-549 breast = test system: BT-549 breast
CAKI-1 renal = test system: CAKI-1 renal
CCRF-CEM leukemia = test system: CCRF-CEM leukemia
COLO 205 colon = test system: COLO 205 colon
DU-145 prostate = test system: DU-145 prostate
HCC-2998 colon = test system: HCC-2998 colon
HCT-116 colon = test system: HCT-116 colon
HCT-15 colon = test system: HCT-15 colon
HL-60(TB) leukemia = test system: HL-60(TB) leukemia
HOP-62 NSCLC = test system: HOP-62 NSCLC
HOP-92 NSCLC = test system: HOP-92 NSCLC
HS 578T breast = test system: HS 578T breast
HT29 colon = test system: HT29 colon
IGROV1 ovarian = test system: IGROV1 ovarian
K-562 leukemia = test system: K-562 leukemia
KM12 colon = test system: KM12 colon
LOX IMVI melanoma = test system: LOX IMVI melanoma
M14 melanoma = test system: M14 melanoma
MALME-3M melanoma = test system: MALME-3M melanoma
MCF7 breast = test system: MCF7 breast
MDA-MB-231 breast = test system: MDA-MB-231 breast
MDA-MB-435 = test system: MDA-MB-435
MOLT-4 leukemia = test system: MOLT-4 leukemia
NCI-H226 lung = test system: NCI-H226 lung
NCI-H23 lung = test system: NCI-H23 lung
NCI-H460 lung = test system: NCI-H460 lung
NCI-H522 lung = test system: NCI-H522 lung
NCI/ADR-RES ovarian = test system: NCI/ADR-RES ovarian
OVCAR-3 ovarian = test system: OVCAR-3 ovarian
OVCAR-4 ovarian = test system: OVCAR-4 ovarian
OVCAR-5 ovarian = test system: OVCAR-5 ovarian
OVCAR-8 ovarian = test system: OVCAR-8 ovarian
PC-3 prostate = test system: PC-3 prostate
RPMI-8226 leukemia = test system: RPMI-8226 leukemia
RXF 393 renal = test system: RXF 393 renal
SF-268 CNS = test system: SF-268 CNS
SF-295 CNS = test system: SF-295 CNS
SF-539 CNS = test system: SF-539 CNS
SK-MEL-2 melanoma = test system: SK-MEL-2 melanoma
SK-MEL-28 melanoma = test system: SK-MEL-28 melanoma
SK-MEL-5 melanoma = test system: SK-MEL-5 melanoma
SK-OV-3 ovarian = test system: SK-OV-3 ovarian
SN12C renal = test system: SN12C renal
SNB-19 CNS = test system: SNB-19 CNS
SNB-75 CNS = test system: SNB-75 CNS
SR leukemia = test system: SR leukemia
SW-620 colon = test system: SW-620 colon
T-47D breast = test system: T-47D breast
TK-10 renal = test system: TK-10 renal
U251 CNS = test system: U251 CNS
UACC-257 melanoma = test system: UACC-257 melanoma
UACC-62 melanoma = test system: UACC-62 melanoma
UO-31 renal = test system: UO-31 renal

For `O=c1c2sc3ccccc3c2nnn1-c1ccc(F)c(Cl)c1`, the GI50 (786-0 renal) was 3.62 µM, the TGI (786-0 renal) was 11.5 µM and the GI50 (A498 renal) was 5.82 µM. The TGI (A498 renal) was 24.2 µM, the GI50 (A549 NSCLC) was 3.75 µM and the TGI (A549 NSCLC) was over 100 µM. The GI50 (ACHN renal) was 3.88 µM, the TGI (ACHN renal) was 27.2 µM and the GI50 (BT-549 breast) was 31.7 µM. It also gave a TGI (BT-549 breast) of 95 µM, a GI50 (CAKI-1 renal) of 3.65 µM and a TGI (CAKI-1 renal) of over 100 µM. For the same molecule, the GI50 (CCRF-CEM leukemia) was 4.03 µM, the TGI (CCRF-CEM leukemia) was 16.9 µM and the GI50 (COLO 205 colon) was 3.93 µM. It also gave a TGI (COLO 205 colon) of over 100 µM, a GI50 (DU-145 prostate) of 15.6 µM and a TGI (DU-145 prostate) of over 100 µM. For the same molecule, the GI50 (HCC-2998 colon) was 24.8 µM, the TGI (HCC-2998 colon) was over 100 µM and the GI50 (HCT-116 colon) was 3.6 µM. It also gave a TGI (HCT-116 colon) of 20.9 µM, a GI50 (HCT-15 colon) of 20.3 µM and a TGI (HCT-15 colon) of over 100 µM. It also gave a GI50 (HL-60(TB) leukemia) of 56.6 µM, a TGI (HL-60(TB) leukemia) of over 100 µM and a GI50 (HOP-62 NSCLC) of 2170 nM. The TGI (HOP-62 NSCLC) was 5.66 µM, the GI50 (HOP-92 NSCLC) was 1250 nM and the TGI (HOP-92 NSCLC) was 4.89 µM. For the same molecule, the GI50 (HS 578T breast) was 2680 nM, the TGI (HS 578T breast) was 10.4 µM and the GI50 (HT29 colon) was over 100 µM. The TGI (HT29 colon) was over 100 µM, the GI50 (IGROV1 ovarian) was 3.66 µM and the TGI (IGROV1 ovarian) was 38 µM. The GI50 (K-562 leukemia) was 14.8 µM, the TGI (K-562 leukemia) was 39.4 µM and the GI50 (KM12 colon) was 17.4 µM. It also gave a TGI (KM12 colon) of over 100 µM, a GI50 (LOX IMVI melanoma) of 3.9 µM and a TGI (LOX IMVI melanoma) of over 100 µM. For the same molecule, the GI50 (M14 melanoma) was 30 µM, the TGI (M14 melanoma) was over 100 µM and the GI50 (MALME-3M melanoma) was 8.17 µM. The TGI (MALME-3M melanoma) was 54.6 µM, the GI50 (MCF7 breast) was 20.4 µM and the TGI (MCF7 breast) was over 100 µM. For the same molecule, the GI50 (MDA-MB-231 breast) was 3.99 µM, the TGI (MDA-MB-231 breast) was 26.1 µM and the GI50 (MDA-MB-435) was over 100 µM. The TGI (MDA-MB-435) was over 100 µM, the GI50 (MOLT-4 leukemia) was 14.9 µM and the TGI (MOLT-4 leukemia) was 32.5 µM. For the same molecule, the GI50 (NCI-H226 lung) was 8.87 µM, the TGI (NCI-H226 lung) was over 100 µM and the GI50 (NCI-H23 lung) was 15.7 µM. The TGI (NCI-H23 lung) was 62.8 µM, the GI50 (NCI-H460 lung) was 4.2 µM and the TGI (NCI-H460 lung) was over 100 µM. The GI50 (NCI-H522 lung) was 20.2 µM, the TGI (NCI-H522 lung) was over 100 µM and the GI50 (NCI/ADR-RES ovarian) was 17.1 µM. It also gave a TGI (NCI/ADR-RES ovarian) of over 100 µM, a GI50 (OVCAR-3 ovarian) of 21.2 µM and a TGI (OVCAR-3 ovarian) of over 100 µM. For the same molecule, the GI50 (OVCAR-4 ovarian) was 3.39 µM, the TGI (OVCAR-4 ovarian) was over 100 µM and the GI50 (OVCAR-5 ovarian) was 20.8 µM. It also gave a TGI (OVCAR-5 ovarian) of over 100 µM, a GI50 (OVCAR-8 ovarian) of 5.16 µM and a TGI (OVCAR-8 ovarian) of over 100 µM. For the same molecule, the GI50 (PC-3 prostate) was 7.76 µM, the TGI (PC-3 prostate) was over 100 µM and the GI50 (RPMI-8226 leukemia) was 13.4 µM. For the same molecule, the TGI (RPMI-8226 leukemia) was 41.4 µM, the GI50 (RXF 393 renal) was 5.21 µM and the TGI (RXF 393 renal) was 22.4 µM. It also gave a GI50 (SF-268 CNS) of 15 µM, a TGI (SF-268 CNS) of 55 µM and a GI50 (SF-295 CNS) of 2560 nM. The TGI (SF-295 CNS) was 8.59 µM, the GI50 (SF-539 CNS) was 11.9 µM and the TGI (SF-539 CNS) was 27.7 µM. The GI50 (SK-MEL-2 melanoma) was 14.8 µM, the TGI (SK-MEL-2 melanoma) was 35 µM and the GI50 (SK-MEL-28 melanoma) was over 100 µM. The TGI (SK-MEL-28 melanoma) was over 100 µM, the GI50 (SK-MEL-5 melanoma) was 39.3 µM and the TGI (SK-MEL-5 melanoma) was over 100 µM. It also gave a GI50 (SK-OV-3 ovarian) of 3.17 µM, a TGI (SK-OV-3 ovarian) of 9.92 µM and a GI50 (SN12C renal) of 15.1 µM. It also gave a TGI (SN12C renal) of over 100 µM, a GI50 (SNB-19 CNS) of 4.16 µM and a TGI (SNB-19 CNS) of 34.4 µM. The GI50 (SNB-75 CNS) was 2010 nM, the TGI (SNB-75 CNS) was 8.89 µM and the GI50 (SR leukemia) was 7.99 µM. For the same molecule, the TGI (SR leukemia) was 22.7 µM, the GI50 (SW-620 colon) was over 100 µM and the TGI (SW-620 colon) was over 100 µM. It also gave a GI50 (T-47D breast) of 8.12 µM, a TGI (T-47D breast) of over 100 µM and a GI50 (TK-10 renal) of 4.63 µM. The TGI (TK-10 renal) was 13.8 µM, the GI50 (U251 CNS) was 4.76 µM and the TGI (U251 CNS) was 24.9 µM. It also gave a GI50 (UACC-257 melanoma) of 29.4 µM, a TGI (UACC-257 melanoma) of over 100 µM and a GI50 (UACC-62 melanoma) of 11.7 µM. The TGI (UACC-62 melanoma) was 38.8 µM, the GI50 (UO-31 renal) was 2130 nM and the TGI (UO-31 renal) was over 100 µM.
